Data reported in patent US6737433B1, “1-N-phenylamino-1H-imidazole derivatives as aromatase inhibitors and pharmaceutical compositions containing them” (Laboratoire Theramex, priority 2002, dated 2004).

Assays:
human aromatase = target: T1, human aromatase (Homo sapiens, UniProt P11511); test: Inhibition of human aromatase in vitro in JEG-3 cells (3H-water release from 1β-3H-androstenedione); format: cell-based; settings: 10 nM 1β-3H-androstenedione, 2 h incubation
T1 construct: The JEG-3 cell line, derived from a human placental choriocarcinoma, is intrinsically very rich in human aromatase; endogenous in cells; host or cells: JEG-3 (human placental choriocarcinoma)
T1 sequence (P11511 1-503): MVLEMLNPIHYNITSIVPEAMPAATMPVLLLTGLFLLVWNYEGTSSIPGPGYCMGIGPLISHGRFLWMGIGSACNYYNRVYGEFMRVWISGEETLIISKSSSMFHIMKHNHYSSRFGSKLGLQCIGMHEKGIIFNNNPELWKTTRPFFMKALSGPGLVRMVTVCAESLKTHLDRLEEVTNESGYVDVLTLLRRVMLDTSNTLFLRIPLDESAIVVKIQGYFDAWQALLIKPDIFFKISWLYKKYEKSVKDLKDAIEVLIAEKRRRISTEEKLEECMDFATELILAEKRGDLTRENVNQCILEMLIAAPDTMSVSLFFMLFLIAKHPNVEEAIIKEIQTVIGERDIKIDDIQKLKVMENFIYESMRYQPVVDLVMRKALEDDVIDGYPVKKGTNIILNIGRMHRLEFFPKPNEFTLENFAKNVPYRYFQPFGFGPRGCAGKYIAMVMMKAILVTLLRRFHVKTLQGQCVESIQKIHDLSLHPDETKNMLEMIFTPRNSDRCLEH
Procedure: Stocks of JEG-3 cells are grown up to 80% of confluence as monolayers in plastic flasks in minimum Eagle's medium with 1 g/l glucose and 10% decomplemented fetal calf serum at pH 7.4 and 37° C., under a 5% CO2 atmosphere. Then, 24 hours before aromatase activity measurement, JEG-3 cells are distributed for seeding in 96-well microplates (60,000 to 100,000 viable cells in 100 μl of culture medium per well); 24 hours later, microplates are rinsed and fresh medium containing the radioactive aromatase substrate (1β-^3H-androstenedione, 10 nM) is added together with test compounds dissolved with 1% dimethylsulfoxyde in a test concentration range between 10^−11 and 10^−4 M in a total volume of 150 μl.
Two hours after the beginning of the incubation, 100 μl of the supernatants are transferred to homologous new 96-well microplates. A solution of dextran-coated charcoal (1%) is added in each well (100 μl/well); after standing for 10 minutes on ice, microplates are centrifuged (1500 g) for 10 more minutes at 4° C. All steroids, including the radioactive substrate and the newly biosynthesized estrogens, are trapped complexed by the charcoal; only the ^3H-water specifically formed during aromatisation of 1β-^3H-androstenedione, involving a specific oxidative step removing the 1β-^3H, remains in the supernatant at this stage.
Finally, aromatase activity is expressed in fmoles/μg DNA in 2 hours and aromatase inhibition in percentage of control incubation without inhibitors.

aromatase = target: T2, aromatase (Rattus norvegicus, UniProt P22443); test: Inhibition of aromatase in vivo: inhibition of preovulatory surge of plasma estradiol in female Wistar rats; settings: single oral dose 10 μg/kg on diestrus, plasma estradiol 24 h later, vs vehicle controls; range = independent studies
T2 construct: from tissue; host or cells: whole animal: adult female Wistar rats (endogenous enzyme)
T2 sequence (P22443 1-508): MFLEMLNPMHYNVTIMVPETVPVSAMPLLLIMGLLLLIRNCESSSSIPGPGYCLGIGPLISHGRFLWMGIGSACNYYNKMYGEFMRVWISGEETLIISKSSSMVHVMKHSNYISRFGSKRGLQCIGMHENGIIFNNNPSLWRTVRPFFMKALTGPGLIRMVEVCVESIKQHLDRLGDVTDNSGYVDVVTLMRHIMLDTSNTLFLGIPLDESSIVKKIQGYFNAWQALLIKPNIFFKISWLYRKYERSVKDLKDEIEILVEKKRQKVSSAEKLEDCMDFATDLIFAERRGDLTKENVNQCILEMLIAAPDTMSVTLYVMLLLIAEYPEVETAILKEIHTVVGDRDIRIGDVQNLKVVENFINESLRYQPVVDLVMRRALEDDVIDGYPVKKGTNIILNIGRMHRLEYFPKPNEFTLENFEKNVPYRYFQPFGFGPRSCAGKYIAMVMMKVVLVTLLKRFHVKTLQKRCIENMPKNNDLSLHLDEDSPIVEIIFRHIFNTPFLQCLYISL
Excerpt: Aromatase is the steroidogenic enzyme responsible for the biosynthesis of estradiol, the main female sex hormone among estrogens. In the rat, estradiol is physiologically synthesized to high circulating levels in a particular period during the 4-day estrous cycle: it is the so-called preovulatory surge taking place in the afternoon of proestrus, just before ovulation which occurs during the night between proestrous and estrous phases. A sensitive physiological model for in vivo evaluation of aromatase inhibition was developped based on the inhibition of this preovulatory surge of estradiol levels.
Adult female Wistar rats are monitored for regular 4-day estrous cyclicity by daily vaginal smear examination; after 2 or 3 regular cycles, animals are treated by a single oral administration of the very low discriminative dose of 10 micrograms/kg in a 4 ml/kg volume around 04:00 PM on diestrus, i.e. on the day before proestrus. Precisely 24 hours later, aortic blood samples are drawn under gaseous anesthesia. Plasma estradiol levels are measured by radioimmunoassay with commercially available kits (Diagnostic Systems Laboratories, Webster, Tex., U. S. A.). Control and test groups usually consist of 7 to 10 rats, depending on the number of regularly cycling rats to distribute among study groups. Results are expressed in pg/ml and then in % of inhibition taking the estradiol levels of control animals receiving only the oral vehicle as the 100% reference to allow comparisons between different independent studies, since the preovulatory surge level may vary in each control group from one study to another between about 25 to 40 pg/ml.

IC50 (human aromatase) | melting point | SMILES | % inhibition at 10 μg/kg (aromatase)
0.31 ± 0.01 nM | 134 °C | N#Cc1ccc(N(Cc2ccc(C(F)(F)F)cc2)n2ccnc2)cc1 [Example 6, 4-[N-(1H-imidazol-1-yl)-N-(4-trifluoromethylphenylmethyl)amino]benzonitrile] | 57%
– | – | CC(C)(C#N)c1cc(Cn2cncn2)cc(C(C)(C)C#N)c1 [Anastrozole, anastrozole, reference compound] | 18%-33%
0.24 ± 0.02 nM | 132 °C | N#Cc1ccc(N(Cc2ccc(F)c(F)c2)n2ccnc2)cc1 [Example 17, 4-[N-(1H-imidazol-1-yl)-N-(3,4-difluorophenylmethyl)amino]benzonitrile] | 60%
0.4 ± 0.06 nM | 170 °C | N#Cc1ccc(N(Cc2cc(F)cc(F)c2)n2ccnc2)cc1 [Example 19, 4-[N-(1H-imidazol-1-yl)-N-(3,5-difluorophenylmethyl)amino]benzonitrile] | –
0.19 ± 0.05 nM | 122 °C | N#Cc1ccc(N(Cc2cccc(C(F)(F)F)c2)n2ccnc2)cc1 [Example 29, 4-[N-(1H-imidazol-1-yl)-N-(3-trifluoromethylphenylmethyl)amino]benzonitrile] | –
0.3 ± 0.04 nM | – | N#Cc1ccc(N(Cc2ccc(Br)cc2)n2cncn2)cc1 [YM 511, reference compound] | 35%
1.57 ± 0.74 nM | 113 °C | N#Cc1ccc(N(c2ccc(F)cc2)n2ccnc2)cc1 [Example 28, 4-[N-(1H-imidazol-1-yl)-N-(4-fluorophenyl)amino]benzonitrile] | –

SMILES | IC50 (human aromatase) | melting point | % inhibition at 10 μg/kg (aromatase)
N#Cc1ccc(N(Cc2ccc(Cl)cc2)n2ccnc2)cc1 [Example 7, 4-[N-(1H-imidazol-1-yl)-N-(4-chlorophenylmethyl)amino]benzonitrile] | 0.14 ± 0.05 nM | – | 47%
N#Cc1ccc(N(Cc2ccc(F)cc2)n2ccnc2)cc1 [Example 14, 4-[N-(1H-imidazol-1-yl)-N-(4-fluorophenylmethyl)amino]benzonitrile] | 0.16 ± 0.02 nM | – | 49%-57%
N#Cc1ccc(CN(c2ccc(C#N)cc2)n2ccnc2)cc1 [Example 11, 4-[N-(1H-imidazol-1-yl)-N-(4-cyanophenylmethyl)amino]benzonitrile] | 0.18 ± 0.02 nM | – | 57%-59%
